Experimental data published in ChEMBL document CHEMBL4371101, “Antiproliferative Cardenolides from the Aerial Parts of Pergularia tomentosa” (J Nat Prod, 2019).
Active and inactive are the calls of the source. The calls are words filed in the database; no cut-off is given here.

Assays:
Assay type in all cases: functional, cell-based
MCF7 = experiment: Antiproliferative activity against human MCF7 cells after 72 hrs by MTT assay; settings: MCF7, 72 h
HeLa = experiment: Antiproliferative activity against human HeLa cells after 72 hrs by MTT assay
U-251 = experiment: Antiproliferative activity against human U251MG cells after 72 hrs by MTT assay; settings: U-251, 72 h
Calu-1 = experiment: Antiproliferative activity against human Calu1 cells after 72 hrs by MTT assay; settings: Calu-1, 72 h
PC-3 [1] = experiment: Antiproliferative activity against human PC3 cells after 72 hrs by MTT assay; settings: PC-3, 72 h
PC-3 [2] = experiment: Antiproliferative activity against human PC3 cells assessed as reduction in BrdU incorporation at 1 uM after 24 hrs by Hoechst staining based microscopic assay

Row | SMILES | IC50 (MCF7) [µM] | IC50 (HeLa) [µM] | IC50 (U-251) [µM] | IC50 (Calu-1) [µM] | IC50 (PC-3 [1]) [µM] | Activity (PC-3 [2])
1 | C[C@]12[C@H](O)C[C@H]3[C@@H](CC[C@H]4C[C@H]5O[C@@H]6O[C@H](CO)C[C@@H](O)[C@]6(O)O[C@@H]5C[C@@]43CO)[C@@]1(O)CC[C@@H]2C1=CC(=O)OC1 [GHALAKINOSIDE] | 0.6 | 0.9 | 5.2 | 0.7 | 4.2 | –
2 | COc1cc(/C=C/C(=O)OC[C@H]2O[C@@H](O[C@H]3CC[C@@]4(C)[C@@H](CC[C@@H]5[C@@H]4CC[C@]4(C)[C@@H](C6=CC(=O)OC6)CC[C@]54O)C3)[C@H](O)[C@@H](O)[C@@H]2O)ccc1O | 0.2 | 4.5 | 5.8 | 6 | 0.3 | –
3 | C[C@]12CC[C@H]3[C@@H](CC[C@H]4C[C@@H](O)CC[C@@]43CO)[C@@]1(O)CC[C@@H]2C1=CC(=O)OC1 [COROGLAUCIGENIN] | 7 | 4.2 | 5 | 5.8 | 0.4 | –
4 | C[C@]12[C@H](O)C[C@H]3[C@@H](CC[C@H]4C[C@H]5O[C@@H]6O[C@H](CO)C[C@H](O)[C@]6(O)O[C@@H]5C[C@@]43C=O)[C@@]1(O)CC[C@@H]2C1=CC(=O)OC1 | 2.8 | 2 | 6 | 2 | 0.9 | Active
5 | CC(=O)O[C@@]12CO[C@@H]1C[C@H](O)[C@@]1(C)C(=O)[C@H](O)C3=C(C)[C@@H](OC(=O)[C@H](O)[C@@H](NC(=O)OC(C)(C)C)c4ccccc4)C[C@@](O)([C@@H](OC(=O)c4ccccc4)[C@H]21)C3(C)C [DOCETAXEL ANHYDROUS] | 0.0005 | 0.0003 | 0.0007 | 0.0004 | 0.0006 | –
6 | C[C@]12CC[C@H](O)C[C@@H]1CC[C@@H]1[C@@H]2CC[C@]2(C)[C@@H](C3=CC(=O)OC3)CC[C@]12O | 6 | 3 | 6 | 8 | 0.3 | –
7 | C[C@@H]1C[C@@H](O)[C@]2(O)O[C@@H]3C[C@@]4(C=O)[C@@H](CC[C@@H]5[C@@H]4CC[C@]4(C)[C@@H](C6=CC(=O)OC6)CC[C@]54O)C[C@H]3O[C@@H]2O1 [CALACTIN] | 0.2 | 0.2 | 0.9 | 0.5 | 3.7 | –
8 | C[C@@H]1C[C@H](O)[C@]2(O)O[C@@H]3C[C@@]4(C=O)[C@@H](CC[C@@H]5[C@@H]4C[C@@H](O)[C@]4(C)[C@@H](C6=CC(=O)OC6)[C@H](O)C[C@]54O)C[C@H]3O[C@@H]2O1 | 7 | 2.3 | 1.5 | 4.3 | 0.6 | Active
9 | C[C@@H]1C[C@H](O)[C@]2(O)O[C@@H]3C[C@@]4(C=O)[C@@H](CC[C@@H]5[C@@H]4C[C@@H](O)[C@]4(C)[C@@H](C6=CC(=O)OC6)CC[C@]54O)C[C@H]3O[C@@H]2O1 | 0.2 | 0.6 | 1 | 0.6 | 2.1 | –
10 | C[C@@H]1C[C@@H](O[C@@H]2O[C@H](CO)[C@@H](O)[C@H](O)[C@H]2O)[C@]2(O)O[C@@H]3C[C@@]4(C=O)[C@@H](CC[C@@H]5[C@@H]4CC[C@]4(C)[C@@H](C6=CC(=O)OC6)CC[C@]54O)C[C@H]3O[C@@H]2O1 | 0.2 | 0.6 | 4.4 | 0.3 | 1 | –
11 | C[C@]12CC[C@H]3[C@@H](CC[C@H]4C[C@H]5O[C@@H]6O[C@H](CO)C[C@H](O)[C@]6(O)O[C@@H]5C[C@@]43C=O)[C@@]1(O)CC[C@@H]2C1=CC(=O)OC1 | 1.8 | 0.3 | 5 | 1.4 | 3.2 | –
12 | C[C@]12[C@H](O)C[C@H]3[C@@H](CC[C@H]4C[C@@H](O)CC[C@@]43CO)[C@@]1(O)CC[C@@H]2C1=CC(=O)OC1 | 2.5 | 0.9 | 5 | 1.3 | 8.4 | –
13 | CC(=O)O[C@@H]1C[C@]2(O)[C@@H]3CC[C@H]4C[C@H]5O[C@@H]6O[C@H](C)C[C@H](O)[C@]6(O)O[C@@H]5C[C@]4(C=O)[C@H]3C[C@@H](O)[C@]2(C)[C@H]1C1=CC(=O)OC1 | 0.4 | 0.5 | 6.5 | 0.7 | 4.2 | –
14 | C[C@]12CC[C@H]3[C@@H](CC[C@H]4C[C@@H](O[C@@H]5O[C@H](CO)[C@@H](O)[C@H](O)[C@H]5O)CC[C@@]43CO)[C@@]1(O)CC[C@@H]2C1=CC(=O)OC1 | 8 | 0.3 | 6 | 6 | 1 | –
15 | C[C@@H]1C[C@@H](O)[C@]2(O)O[C@@H]3C[C@@]4(CO)[C@@H](CC[C@@H]5[C@@H]4C[C@@H](O)[C@]4(C)[C@@H](C6=CC(=O)OC6)CC[C@]54O)C[C@H]3O[C@@H]2O1 | 5 | 7 | 8 | 6 | 0.6 | –
16 | C[C@@H]1C[C@@H](O)[C@]2(O)O[C@@H]3C[C@@]4(C=O)[C@@H](CC[C@@H]5[C@@H]4C[C@@H](O)[C@]4(C)[C@@H](C6=CC(=O)OC6)CC[C@]54O)C[C@H]3O[C@@H]2O1 | 6 | 2.5 | 5.3 | 7 | 0.3 | Active
17 | C[C@]12[C@H](O)C[C@H]3[C@@H](CC[C@H]4C[C@H]5O[C@@H]6O[C@H](CO)C[C@@H](O)[C@]6(O)O[C@@H]5C[C@@]43C=O)[C@@]1(O)CC[C@@H]2C1=CC(=O)OC1 | 2 | 0.3 | 5.5 | 3.7 | 8.9 | –
18 | C[C@]12CC[C@H]3[C@@H](CC[C@H]4C[C@H]5O[C@@H]6O[C@H](CO)C[C@@H](O)[C@]6(O)O[C@@H]5C[C@@]43CO)[C@@]1(O)CC[C@@H]2C1=CC(=O)OC1 | 0.2 | 0.3 | 1.2 | 0.6 | 3 | –
19 | C[C@]12CC[C@H](O[C@@H]3O[C@H](CO)[C@@H](O)[C@H](O)[C@H]3O)C[C@@H]1CC[C@@H]1[C@@H]2CC[C@]2(C)[C@@H](C3=CC(=O)OC3)CC[C@]12O [DESGLUCOUZARIN] | 6 | 0.6 | 8 | 6.5 | 0.3 | –
